EC50, EC90 and CC50 data for one compound are collected here from ChEMBL document CHEMBL4613309, “Identification of 2-(4-(Phenylsulfonyl)piperazine-1-yl)pyrimidine Analogues as Novel Inhibitors of Chikungunya Virus” (ACS Med Chem Lett, 2020).

For one data set, the system named is Chikungunya virus. The experiment in a line: microbe, parasite or virus in culture.
A short description of the next data set: in vitro. To be noted: chlorocebus sabaeus, Vero cells.

In the data set on Chikungunya virus, `CCNc1nc(C)cc(N2CCN(C(=O)c3ccc(Cl)cc3)CC2)n1` gave an EC50 of 32 µM and an EC90 of 108 µM. Besides, half-maximal cytotoxicity in the data set “in vitro” (CC50 at 120 h) was put at 202 µM.
